Data on two substances can be found in patent publication US8715658B2, “Methods for treating conditions mediated by the inflammatory cytokine cascade using GAPDH inhibitors” (The Feinstein Institute for Medical Research, priority 2009, dated 2014).

One series relates to RAW264.7 cells. Description: RAW264.7 cells challenged with GAPDH for cytokine (TNF) elicitation, ELISA. The class given is cell-based, murine. The conditions noted are these: 50 μg/ml GAPDH, 4 hours, FIG. 2. On the procedure: Murine macrophage-like RAW264.7 cells were obtained from the American Type Tissue collection (ATTC). The RAW264.7 cells were cultured in Dulbecco's Modified Essential Medium (DMEM) (Gibco) supplemented with 1% heat-inactivated fetal bovine serum (FBS) (BioWhittaker), and 2 mM L-glutamine, and 100 μg/ml penicillin and streptomycin (all from Sigma). Raw264.7 cultures were incubated at 37° C. under 5% CO2. The cells were serum-deprived in 1% FBS medium for the purpose of slowing the cell cycle to synchronize the cell population. Serum deprivation of the cells also limits available growth factors, minimizing the level of intracellular signaling in pathways that lead to the activation of mitogen-activated protein (MAP) kinases. It is interesting to note that immune challenges such as bacterial endotoxin (LPS) also activate MAP kinases to generate inflammatory responses, and thus high levels of FBS would interfere with the detection of MAP kinase signals that are elicited by the specific immune challenges that this study investigates. RAW264.7 cells were used at approximately 70% confluence, and all treatments were carried out in serum-free Opti-MEM I medium.
RAW264.7 cells at approximately 70% confluence were kept in serum-free Opti-MEM I for 20 minutes prior to treatments. […]
In general terms: In an ELISA, binding on a coated surface is turned into a signal by an enzyme label.

The next series has as its system Peritoneal macrophages. As to the kind of experiment: TNF response of peritoneal macrophages from wildtype, TLR2, TLR4 or RAGE deficient mice to GAPDH. The format is cell-based. The note with it: FIG. 3; for TNF release: 50 μg/ml GAPDH. On the procedure:
Peritoneal macrophages harvested from Wildtype, Toll-like receptor (TLR) 2, TLR4, or Receptor for Advanced Glycation Endproducts (RAGE) deficient mice were resuspended in RPMI1640 medium (Gibco) supplemented with 10% FBS and 2 mM L-glutamine, and 100 μg/ml penicillin and streptomycin, and plated at 1×10^6 cells/well into 24-well Primaria tissue culture plates (Falcon). Cultures were maintained for 24 h at 37° C. under 5% CO2. 30 minutes prior to experimentation, culture medium was replaced by serum free Opti-MEM I medium, and all treatments were conducted in serum free Opti-MEM I medium as described.
RAW264.7 cells at approximately 70% confluence were kept in serum-free Opti-MEM I for 20 minutes prior to treatments. Cells were challenged with a concentration range of purified recombinant GAPDH (produced on site) to determine concentration-dependent responsiveness of inflammatory mediator production. The concentration range consisted of seven concentrations of GAPDH in a five-fold dilution series (50 μg/ml, 10 μg/ml, 2 μg/ml, 0.4 μg/ml, 0.08 μg/ml, 0.016 μg/ml, 0 μg/ml). Cells were incubated at 37° C. and 5% CO2 for 4 hours (TNF). After treatment, the media was harvested and transferred to tubes, and M-cell lysis reagent was applied to the cells. […] The media samples were applied to Enzyme-Linked ImmunoSorbent Assays (ELISA) directed against mouse-TNF (all ELISA reagents were obtained from R+D systems). These ELISA plates were set up and run according to the manufacturer's recommendations. Briefly, samples were incubated overnight in the ELISA plate on a rocker at 4° C. Plates were washed 3× with phosphate-buffered saline supplemented with 0.05% TWEEN-20, and detection antibody diluted at 1:2000 in 1% bovine serum albumin (BSA) was applied to the plates for 2 hours. The plates were washed again as above, and strepavidin-HRP diluted at 1:2000 in 1% BSA was applied to the plates for 15 minutes. The plates were washed again as above, then developed by applying substrate reagent to each well. Reactions were stopped by adding 2M H2SO4 when the standard curve had become obvious, typically 8 to 10 minutes.

A further series has as its system IκBα. Description: RAW264.7 cells challenged with GAPDH or LPS, IκBα degradation (NF-κB pathway) by Western blot. The format is cell-based, murine. The note with it: 50 μg/ml GAPDH or 20 ng/ml LPS, time-course 0-180 min, FIG. 4. The method, then:
(§1) RAW264.7 cells at approximately 70% confluence were kept in serum-free Opti-MEM I for 20 minutes prior to treatments. Cells were challenged with either GAPDH or LPS in a time-course with […] time points (180 min, 120 min, 60 min, 30 min, 15 min, and 0 min). The GAPDH treatment consisted of purified GAPDH diluted to 50 μg/ml in Opti-MEM I. The LPS treatment consisted of LPS (sonicated approximately 30 minutes before use) diluted to 20 ng/ml into Opti-MEM I. Treatments used for time-course experiments were incubated in a 37° C. water bath to maintain culture temperature between time points and sonicated for five minutes before use. […] Bound IκBα antibody was detected using a 1:2000 dilution of HRP-conjugated anti-mouse IgG in 2.5% milk; bound JNK antibody was detected using a 1:2000 dilution of HRP-conjugated anti-rabbit IgG in 2.5% milk. […]
(§2) RAW264.7 macrophage-like cells were challenged with either 50 μg/ml GAPDH or 20 ng/ml LPS in a time-course consisting of six time points ranging from 180 min to 0 min. […] Protein assays were conducted on cell lysates in order to standardize the quantity of protein loaded into each well of SDSPAGE gels for separation. […]
(Immunoblotting shows a protein as a band on a membrane.)

For another series, the system named is JNK. Description: RAW264.7 cells challenged with GAPDH or LPS, JNK activation by Western blot. The class given is cell-based, murine. The note with it: 50 μg/ml GAPDH or 20 ng/ml LPS. The method, then: as §1, §2
A further series deals with human whole blood. Description: Human whole blood assay, plasma TNF by ELISA. The class given is cell-based. On the procedure:
Human whole blood was obtained from anonymous donors from the Long Island Blood Services. The blood was aliquotted into 48-well plates at 250 μl/well. Aliquots were then treated as indicated at 37° C. for four hours. Samples were centrifuged to separate plasma at 5000 rpm for five minutes at room temperature. TNF levels in the plasma were determined by ELISA as described above.
IgG from α-GAPDH #4418 antiserum was purified using protein A/G sepharose (Pierce). Purified IgG was used to test for the ability of α-GAPDH #4418 to neutralize GAPDH activity. Six conditions were tested: GAPDH (10 μg/ml) alone, GAPDH plus non-specific rabbit IgG (100 ug/ml), GAPDH plus α-GAPDH #4418 (100 ug/ml), α-GAPDH #4418 alone, non-specific rabbit IgG alone. The GAPDH plus α-GAPDH #4418 treatment was pre-incubated at room temperature for 30 minutes prior to applying the mixture to the whole blood.

The subject of the next series is mice. Description: GST-GAPDH challenge in mice, clinical sickness scoring. The class given is in vivo. The note with it: FIG. 9.
The subject of a further series is cultured macrophages. Description: GST-GAPDH on cultured macrophages, inflammatory responses. The format is cell-based. The note with it: FIG. 7.

Regarding “GAPDH: purified recombinant human GAPDH (produced on site), tested as candidate inflammatory cytokine”, the TNF release result in the series with RAW264.7 cells was “approximately 2250 pg/mg of cellular protein”; in the series with Peritoneal macrophages (RAGE deficient macrophages) it was “approximately 4500 pg TNF/mg cell protein”; with Peritoneal macrophages (TLR2 deficient macrophages), about 5000 pg TNF/mg cell protein; in the series with Peritoneal macrophages (wild type macrophages), “approximately 6000 pg TNF/mg cellular protein”. Also, the TNF response entry with Peritoneal macrophages (TLR4 deficient macrophages) is listed as “did not mount a significant response”. Further, in the series on IκBα, the “basal level of IκBα (degradation)” value is “decreased dramatically and was nearly undetectable by 30 minutes post treatment”. Besides, the entries for the “increase in activated JNK levels” value with JNK (30 minutes after challenge) and with JNK (60 minutes after challenge) were “approximately eight-fold” and “approximately fifteen-fold”, respectively. Besides, the “plasma TNF levels” value with human whole blood (10 μg/ml challenge, four hours, human whole blood, FIG. 5) is given as “approximately 450 pg/ml”.
Regarding “GST-GAPDH: purified recombinant GST-GAPDH, a stable tetramer”, the “inflammatory cytokine response from human blood” value with human whole blood (FIG. 8) is “elicit inflammatory cytokine response”. Further, the “interaction of inflammatory response with LPS” value in the series on human whole blood (human blood, FIG. 8) is recorded as “synergistic with LPS”. Also, the “sickness by clinical scoring parameters (piloerection, closed eyes, diarrhea, tremoring, activity, relative temperature)” value in the series with mice is “cause sickness”. Further, in the series with cultured macrophages, the “inflammatory responses from cultured macrophages” value was “elicits inflammatory responses”.
